Patent publication US20160213788A1, “ACTIVE TARGETING ANTITUMOR DRUG AND PREPARATION METHOD THEREFOR” (NINGBO INSTITUTE OF MATERIALS TECHNOLOGY & ENGINEERING, …, priority 2013, published 2016)

Key:
[1] = tested on: human breast cancer MCF-7 cells; assay: MTT test (cell toxicity test); format: cell-based; settings: for survival rate of cell (%): MCF-7, 4 h exposure then 44 h culture
Experimental: (§1) (1) MTT test (cell toxicity test)
(§2) 1. formulating a single cell suspension with a medium containing 10% fetal calf serum, and then seeding the suspension into 96-well plates in 1.0×10^5 cells per well. The volume of each well was 150 μL.
(§3) 2. placing the plates into a cell incubator of 37° C. and culturing for 24 h.
(§4) 3. absorbing and discarding the supernatant of the medium in the well, and adding […], fresh medium containing TXT or […], solution containing composition [D-Arg^25]-NPY-ANP-TXT with same concentration of TXT.
(§5) 4. placing into a cell incubator of 37° C. and culturing for 4 h, absorbing and discarding the supernatant of the medium in the well, and then replacing with fresh medium contain no medication or nanoparticle composition, and continuing to culture for 44 h.
(§6) 5. adding 10 μL MTT solution (5 mg/ml, in PBS, pH=7.4) into each well, placing the plates into a cell incubator of 37° C. and continuing to culture for 4 h, terminating the culture, and then absorbing and discarding the supernatant of the medium in the well.
(§7) 6. adding 150 μL DMSO into each well, oscillating for 10 min, so that the crystal was fully thawed.
(§8) 7. selecting 550 nm wavelength, and measuring the light absorbance for each well with enzyme-linked immunosorbent monitor and recording the results.
(§9) The cells used in cell experiments comprised human breast cancer MCF-7 cells, human endometrial tumors HEC-1B-Y5 cells (Purchased from American Type Culture Collection (ATCC) and Sciencell company(USA))

[2] = tested on: human endometrial tumors HEC-1B-Y5 cells; assay: MTT test (cell toxicity test); format: cell-based; settings: for survival rate of cell (%): HEC-1B-Y5, 4 h exposure then 44 h culture
Experimental: as §1, §2, §3, §4, §5, §6, §7, §8, §9

**Q.** Which results are given for `CC(=O)O[C@@]12CO[C@@H]1C[C@H](O)[C@@]1(C)C(=O)[C@H](O)C3=C(C)[C@@H](OC(=O)[C@H](O)[C@@H](NC(=O)OC(C)(C)C)c4ccccc4)C[C@@](O)([C@@H](OC(=O)c4ccccc4)[C@H]21)C3(C)C` [TXT, docetaxel]?
**A.** survival rate of cell (%) ([1]; CTXT 0.5 μg/mL): 90%; survival rate of cell (%) ([1]; CTXT 1.0 μg/mL): 80%; survival rate of cell (%) ([1]; CTXT 2.0 μg/mL): 50%; survival rate of cell (%) ([1]; CTXT 5.0 μg/mL): 20%; survival rate of cell (%) ([1]; CTXT 10.0 μg/mL): 20%; killing effect (in words) ([1]; MCF-7 cells): excellent killing effect; survival rate of cell (%) ([2]; CTXT 0.5 μg/mL): 91%; survival rate of cell (%) ([2]; CTXT 1.0 μg/mL): 79%; survival rate of cell (%) ([2]; CTXT 2.0 μg/mL): 55%; survival rate of cell (%) ([2]; CTXT 5.0 μg/mL): 40%; survival rate of cell (%) ([2]; CTXT 10.0 μg/mL): 30%; killing effect (in words) ([2]; HEC-1B-Y5 cells): excellent killing effect
